Among the data in patent US20250388605A1, “HETEROBIFUNCTIONAL COMPOUNDS AND METHODS OF TREATING DISEASE” (Halda Therapeutics OpCo, Inc., priority 2022, published 2025) are GI50 values, retold here.

The term GI50 denotes the concentration giving 50% growth inhibition.

The subject of the first assay is T47D cells. In words: Cellular Growth Inhibition Assay for T47D Cells (CellTiter-Glo). It counts as cell-based, human. The following applies: 72 hours. As to the method: Exemplary compounds were tested for ability to inhibit the proliferation of T47D cells. T47D cells are a commercially available human breast cancer cell line.
T47D cells were purchased from American Type Cell Culture (ATCC Cat #HTB-133) and then seeded on poly-D-lysine coated, black clear-bottom 384-well plates at 3000/well in 25 μL Dulbecco's Modified Eagle Medium (DMEM) supplemented with 10% w/w Fetal bovine serum (FBS), 0.2 units/mL recombinant human insulin (Gibco Cat #12585014), and 1% w/w Pen-Strep. Pen-Strep is a commercially available mixture of penicillin G and streptomycin, which is used in mammalian cell culture media to prevent bacterial contamination. Dulbecco's Modified Eagle Medium (DMEM) supplemented with 10% w/w fetal bovine serum (FBS), 0.2 units/mL recombinant human insulin, and 1% w/w Pen-Strep is herein referred to as Treatment Medium. Following seeding of cells in the plates, the plates were spun at 300×g for 30 seconds, then equilibrated to room temperature for 30 minutes, and then deposited in a humidified tissue culture incubator maintained at 37° C. with 5% CO2.
At 24 hours after seeding of the cells, dilutions of test compound were prepared in DMSO and dissolved in Treatment Medium, to achieve a final DMSO concentration of 0.5% w/w, thereby providing the Test Compound Solution. A 25 μL aliquot of the Test Compound Solution was added to cells in the well plates. An equal volume of a solution containing DMSO and Treatment Medium was used as a negative control. Following treatment of cells with Test Compound Solution or said equal volume of a solution containing DMSO and Treatment Medium, the plates were spun at 300×g for 30 seconds, and then left in an incubator for 72 hours.
At the end of the treatment duration, cell viability was quantified with CellTiter-Glo 2.0 reagent (Promega Cat #G9243). For this purpose, plates were equilibrated to room temperature for 30 minutes, and then 25 μL of CellTiter-Glo 2.0 reagent was added to cells in the plate wells. Plates were then agitated on a shaker for two minutes at 500 rpm and subsequently incubated at room temperature for 10 minutes. Following incubation, the plates were spun at 3000×g for 30 seconds, then sealed with an optical adhesive cover, and luminescence readings were measured with an EnVision Plate Reader (Perkin Elmer).
Data was normalized using zero luminescence for baseline. A four-parameter non-linear regression curve fit was applied to dose-response data in GraphPad Prism data analysis software to determine the half-maximal growth inhibitory concentration (GI50) for each test compound.
(Cellular ATP, detected with luciferase, serves as a proxy for viable cell number.)
With `Cn1cc(-c2cc(C(C)(C)O)ccc2Oc2ccc(N3CC(C4CCCN(c5ncc(C(=O)N[C@H]6C(C)(C)[C@H](Oc7ccc(C#N)c(Cl)c7)C6(C)C)cn5)CCC4)C3)cc2)c2cc[nH]c2c1=O` [Compound I-362], the GI50 was less than 500 nM.

`Cn1cc(-c2cc(C(C)(C)O)ccc2Oc2ccc(N3CC(C4CCN(c5ncc(C(=O)N[C@H]6C(C)(C)[C@H](Oc7ccc(C#N)c(F)c7)C6(C)C)cn5)CC4)C3)cc2)c2cc[nH]c2c1=O` [Compound I-390]: the GI50 is less than 500 nM. Still for that read-out and setting: the same measure for `Cn1cc(-c2cc(C(C)(C)O)ccc2Oc2cccc(CC3CCN(c4ncc(C(=O)N[C@H]5C(C)(C)[C@H](Oc6ccc(C#N)c(Cl)c6)C5(C)C)cn4)CC3)c2)c2cc[nH]c2c1=O` [Compound I-374]: 500 to 1500 nM. On the same count and under the same terms, the result for `Cn1cc(-c2cc(C(C)(C)O)ccc2Oc2ccc(N3CC(C4CCN(c5ncc(C(=O)N[C@H]6C(C)(C)[C@H](Oc7ccc(C#N)c(C(F)(F)F)c7)C6(C)C)cn5)CC4)C3)cc2)c2cc[nH]c2c1=O` [Compound I-389] reads less than 500 nM; that for `COc1cc(O[C@H]2C(C)(C)[C@H](NC(=O)c3cnc(N4CCC(C5CN(c6ccc(Oc7ccc(C(C)(C)O)cc7-c7cn(C)c(=O)c8[nH]ccc78)cc6)C5)CC4)nc3)C2(C)C)ccc1C#N` [Compound I-385], less than 500 nM. Compound `Cn1cc(-c2cc(C(C)(C)O)ccc2Oc2ccccc2)c2cc(C(=O)NC3CC(CC4CCN(c5ccc(C(=O)N[C@H]6C(C)(C)[C@H](Oc7ccc(C#N)c(Cl)c7)C6(C)C)nc5)CC4)C3)[nH]c2c1=O` (stereo partly shown) [Compound I-378] yielded a 50% growth inhibitory concentration (GI50) of more than 3000 nM. Still for that read-out and setting: the result for `Cn1cc(-c2cc(C(C)(C)O)ccc2Oc2ccc(N3CC(C4CCN(c5ccc(C(=O)N[C@H]6C(C)(C)[C@H](Oc7ccc(C#N)c(Cl)c7)C6(C)C)cn5)CC4)C3)cc2)c2cc[nH]c2c1=O` [Compound I-382] reads less than 500 nM. The same measure, in the same setting: the result for `Cn1cc(-c2cc(C(C)(C)O)ccc2Oc2ccc(N3CC4(C3)CN(c3cnc(C(=O)N[C@H]5C(C)(C)[C@H](Oc6ccc(C#N)c(Cl)c6)C5(C)C)cn3)C4)cc2)c2cc[nH]c2c1=O` [Compound I-355] reads less than 500 nM; that for `Cn1cc(-c2ccccc2Oc2ccc(N3CC(CC4CCN(c5ncc(C(=O)N[C@H]6C(C)(C)[C@H](Oc7ccc(C#N)c(Cl)c7)C6(C)C)cn5)CC4)C3)cc2)c2cc[nH]c2c1=O` [Compound I-359], more than 3000 nM; that for `Cn1cc(-c2ccccc2Oc2ccc(N3CC(CC4CN(c5ncc(C(=O)N[C@H]6C(C)(C)[C@H](Oc7ccc(C#N)c(Cl)c7)C6(C)C)cn5)C4)C3)cc2)c2cc[nH]c2c1=O` [Compound I-363], less than 500 nM.

The assay is the same for the next values; noted with them: Homo sapiens, 72 hours.
Turning to `Cn1cc(-c2cc(C(C)(C)O)ccc2Oc2ccc(OC3CC4(C3)CC3(CCN(c5ccc(C(=O)N[C@H]6C(C)(C)[C@H](Oc7ccc(C#N)c(Cl)c7)C6(C)C)nc5)CC3)C4)cc2)c2cc[nH]c2c1=O` [Compound I-367], the GI50 is more than 3000 nM. The compound `Cn1cc(-c2cc(C(C)(C)O)ccc2Oc2ccc(CC3CC4(CCN(c5cnc(C(=O)N[C@H]6C(C)(C)[C@H](Oc7ccc(C#N)c(Cl)c7)C6(C)C)cn5)CC4)C3)cc2)c2cc[nH]c2c1=O` [Compound I-375] displayed a 50% growth inhibitory concentration (GI50) of more than 3000 nM. `Cn1cc(-c2cc(C(C)(C)O)ccc2Oc2ccc(OC3CC4(C3)CC3(CCN(c5cnc(C(=O)N[C@H]6C(C)(C)[C@H](Oc7ccc(C#N)c(Cl)c7)C6(C)C)cn5)CC3)C4)cc2)c2cc[nH]c2c1=O` [Compound I-366]: the GI50 is more than 3000 nM. On the same count and under the same terms, the same measure for `Cn1cc(-c2cc(C(C)(C)O)ccc2Oc2ccc(C#CC3CC4(C3)CN(c3ncc(C(=O)NC5C(C)(C)C(Oc6ccc(C#N)c(Cl)c6)C5(C)C)cn3)C4)cc2)c2cc[nH]c2c1=O` (stereo not shown) [Compound I-357, N-[3-(3-chloro-4-cyano-phenoxy)-2,2,4,4-tetramethyl-cyclobutyl]-2-[6-[2-[4-[4-(1-hydroxy-1-methyl-ethyl)-2-(6-methyl-7-oxo-1H-pyrrolo[2,3-c]pyridin-4-yl)phenoxy]phenyl]ethynyl]-2-azaspiro[3.3]heptan-2-yl]pyrimidine-5-carboxamide]: less than 500 nM; for `Cn1cc(-c2cc(C(C)(C)O)ccc2Oc2ccc(CC3CC4(CCN(c5ccc(C(=O)N[C@H]6C(C)(C)[C@H](Oc7ccc(C#N)c(Cl)c7)C6(C)C)cn5)CC4)C3)cc2)c2cc[nH]c2c1=O` [Compound I-380]: 500 to 1500 nM.

Regarding `Cn1cc(-c2cc(C(C)(C)O)ccc2Oc2ccc(CC3CCN(c4ccc(C(=O)N[C@H]5C(C)(C)[C@H](Oc6ccc(C#N)c(Cl)c6)C5(C)C)cn4)CC3)cc2)c2cc[nH]c2c1=O` [Compound I-369], the GI50 was less than 500 nM. On the same count and under the same terms, the same measure for `Cn1cc(-c2cc(C(C)(C)O)ccc2Oc2ccc(CC3CC4(CCN(c5ccc(C(=O)N[C@H]6C(C)(C)[C@H](Oc7ccc(C#N)c(Cl)c7)C6(C)C)nc5)CC4)C3)cc2)c2cc[nH]c2c1=O` [Compound I-379]: 1500 to 3000 nM; for `Cn1cc(-c2cc(C(C)(C)O)ccc2Oc2ccc(C3CC(CC4CCN(c5ncc(C(=O)N[C@H]6C(C)(C)[C@H](Oc7ccc(C#N)c(Cl)c7)C6(C)C)cn5)CC4)C3)cc2)c2cc[nH]c2c1=O` (stereo partly shown) [Compound I-354]: less than 500 nM. The same measure, in the same setting: the result for `Cn1cc(-c2cc(C(C)(C)O)ccc2Oc2ccc(CC3CCN(c4ccc(C(=O)N[C@H]5C(C)(C)[C@H](Oc6ccc(C#N)c(Cl)c6)C5(C)C)nc4)CC3)cc2)c2cc[nH]c2c1=O` [Compound I-368] reads less than 500 nM; that for `Cn1cc(-c2ccccc2Oc2ccc(OCC3CCN(c4ncc(C(=O)NC5C(C)(C)C(Oc6ccc(C#N)c(Cl)c6)C5(C)C)cn4)CC3)cc2)c2cc[nH]c2c1=O` (stereo not shown) [Compound I-356, N-[3-(3-chloro-4-cyano-phenoxy)-2,2,4,4-tetramethyl-cyclobutyl]-2-[4-[[4-[2-(6-methyl-7-oxo-1H-pyrrolo[2,3-c]pyridin-4-yl)phenoxy]phenoxy]methyl]-1-piperidyl]pyrimidine-5-carboxamide], less than 500 nM. Same read-out and setting: the result for `COc1cc(N2CC(CC3CCN(c4cnc(C(=O)NC5C(C)(C)C(Oc6ccc(C#N)c(Cl)c6)C5(C)C)cn4)CC3)C2)ccc1Oc1ccc(C(C)(C)O)cc1-c1cn(C)c(=O)c2[nH]ccc12` (stereo not shown) [Compound I-392, N-[3-(3-chloro-4-cyano-phenoxy)-2,2,4,4-tetramethyl-cyclobutyl]-5-[4-[[1-[4-[4-(1-hydroxy-1-methyl-ethyl)-2-(6-methyl-7-oxo-1H-pyrrolo[2,3-c]pyridin-4-yl)phenoxy]-3-methoxy-phenyl]azetidin-3-yl]methyl]-1-piperidyl]pyrazine-2-carboxamide] reads less than 500 nM; that for `Cc1cc(Oc2ccc(C(C)(C)O)cc2-c2cn(C)c(=O)c3[nH]ccc23)cc(C)c1N1CC(CC2CCN(c3cnc(C(=O)N[C@H]4C(C)(C)[C@H](Oc5ccc(C#N)c(Cl)c5)C4(C)C)cn3)CC2)C1` [Compound I-391, N-[3-(3-chloro-4-cyano-phenoxy)-2,2,4,4-tetramethyl-cyclobutyl]-5-[4-[[1-[4-[4-(1-hydroxy-1-methyl-ethyl)-2-(6-methyl-7-oxo-1H-pyrrolo[2,3-c]pyridin-4-yl)phenoxy]-2,6-dimethyl-phenyl]azetidin-3-yl]methyl]-1-piperidyl]pyrazine-2-carboxamide], less than 500 nM.
